Measured values as given in patent publication US12060385B2, “Compounds for RNA capping and uses thereof” (GUANGZHOU HENOVCOM BIOSCIENCE CO., LTD., priority 2022, dated 2024).

Target: T7 RNA Polymerase (Escherichia phage T7, UniProt P00573)
Assay type: biochemical
Conditions: 20 μL transcription system, Cap1 Analog 4 mM, 37° C. 2 to 3 hours
Method: • 1) A plasmid was linearized and the DNA template was purified. • 2) mRNA was synthesized in vitro with 51 types of capping structures of the present disclosure, or without any cap analogues. CleanCap®AG (3′OMe) (Trilink, N-7413) was applied as positive control group, uncapped mRNA was negative control group, and DNAase/RNase-Free water was a blank control group.
The system was incubated for 2 to 3 hours at 37° C. and digested by TURBO DNase for 15 min LiCl was used to precipitate mRNA for at least 30 min, or overnight, mRNA precipitates were then washed with 75% ethanol. After ethanol was quickly volatilized, mRNA was re-solubilized with RNase-Free water. • 3) The transcribed products were purified and the transcription yields were calculated.

Sequence of T7 RNA Polymerase (P00573 whole entry): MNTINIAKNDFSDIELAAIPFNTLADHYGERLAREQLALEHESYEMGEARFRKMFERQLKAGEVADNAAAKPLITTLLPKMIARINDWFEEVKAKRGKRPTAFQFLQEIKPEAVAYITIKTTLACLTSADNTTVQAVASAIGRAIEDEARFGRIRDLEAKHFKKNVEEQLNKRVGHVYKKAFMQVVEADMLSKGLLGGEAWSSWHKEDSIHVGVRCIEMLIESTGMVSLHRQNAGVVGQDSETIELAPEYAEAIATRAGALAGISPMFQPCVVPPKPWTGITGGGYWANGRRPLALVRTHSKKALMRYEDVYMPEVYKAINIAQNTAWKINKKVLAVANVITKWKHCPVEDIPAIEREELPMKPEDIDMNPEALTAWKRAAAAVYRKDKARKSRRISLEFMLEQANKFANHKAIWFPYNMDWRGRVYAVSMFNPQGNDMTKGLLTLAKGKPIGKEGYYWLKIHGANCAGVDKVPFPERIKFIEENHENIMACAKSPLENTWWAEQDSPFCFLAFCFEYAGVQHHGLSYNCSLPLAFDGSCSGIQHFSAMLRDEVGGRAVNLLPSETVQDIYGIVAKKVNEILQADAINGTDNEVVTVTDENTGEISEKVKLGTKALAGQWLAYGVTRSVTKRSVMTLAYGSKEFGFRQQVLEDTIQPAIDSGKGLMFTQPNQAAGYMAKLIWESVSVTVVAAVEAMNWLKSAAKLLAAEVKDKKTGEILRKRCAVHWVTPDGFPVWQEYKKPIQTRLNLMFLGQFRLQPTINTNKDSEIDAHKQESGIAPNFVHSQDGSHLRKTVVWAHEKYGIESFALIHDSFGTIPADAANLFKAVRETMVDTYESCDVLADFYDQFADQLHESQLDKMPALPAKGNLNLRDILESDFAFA

## COCC[C@H]1[C@@H](O)[C@H](n2c[n+](C)c3c(=O)[nH]c(N)nc32)O[C@@H]1COP(=O)(O)OP(=O)(O)OP(=O)(O)OC[C@H]1O[C@@H](n2cnc3c(N)ncnc32)[C@H](OC)[C@@H]1OP(=O)([O-])OC[C@H]1O[C@@H](n2cnc3c(=O)[nH]c(N)nc32)[C@H](O)[C@@H]1O [Compound 5]
  Final product mass obtained from the 20 μL of mRNA transcription system: 95 µg

## C=CCOC[C@H]1[C@@H](O)[C@H](n2c[n+](C)c3c(=O)[nH]c(N)nc32)O[C@@H]1COP(=O)(O)OP(=O)(O)OP(=O)(O)OC[C@H]1O[C@@H](n2cnc3c(N)ncnc32)[C@H](OC)[C@@H]1OP(=O)(O)OC[C@H]1O[C@@H](n2cnc3c(=O)[nH]c(N)nc32)[C@H](O)[C@@H]1O [Compound 33]
  Final product mass obtained from the 20 μL of mRNA transcription system: 103 µg

## C#CCOCC[C@H]1[C@@H](O)[C@H](n2c[n+](C)c3c(=O)[nH]c(N)nc32)O[C@@H]1COP(=O)(O)OP(=O)(O)OP(=O)(O)OC[C@H]1O[C@@H](n2cnc3c(N)ncnc32)[C@H](OC)[C@@H]1OP(=O)(O)OC[C@H]1O[C@@H](n2cnc3c(=O)[nH]c(N)nc32)[C@H](O)[C@@H]1O [Compound 51]
  Final product mass obtained from the 20 μL of mRNA transcription system: 114 µg

## COCCNC(=O)C[C@@H]1[C@@H](COP(=O)(O)OP(=O)(O)OP(=O)(O)OC[C@H]2O[C@@H](n3cnc4c(N)ncnc43)[C@H](OC)[C@@H]2OP(=O)([O-])OC[C@H]2O[C@@H](n3cnc4c(=O)[nH]c(N)nc43)[C@H](O)[C@@H]2O)OC(n2c[n+](C)c3c(=O)[nH]c(N)nc32)[C@@H]1O (stereo partly drawn) [Compound 58]
  Final product mass obtained from the 20 μL of mRNA transcription system: 115 µg

## COC[C@H]1[C@@H](O)[C@H](n2c[n+](C)c3c(=O)[nH]c(N)nc32)O[C@@H]1COP(=O)(O)OP(=O)(O)OP(=O)(O)OC[C@H]1O[C@@H](n2cnc3c(N)ncnc32)[C@H](OC)[C@@H]1OP(=O)([O-])OC[C@H]1O[C@@H](n2ccc(=O)[nH]c2=O)[C@H](O)[C@@H]1O [Compound 110]
  Final product mass obtained from the 20 μL of mRNA transcription system: 106 µg

## CO[C@@H]1[C@H](OP(=O)([O-])OC[C@H]2O[C@@H](n3ccc(=O)[nH]c3=O)[C@H](O)[C@@H]2O)[C@@H](COP(=O)(O)OP(=O)(O)OP(=O)(O)OC[C@H]2OC(n3c[n+](C)c4c(=O)[nH]c(N)nc43)[C@H](O)[C@@H]2CNC(C)=O)O[C@H]1n1cnc2c(N)ncnc21 (stereo partly drawn) [Compound 118]
  Final product mass obtained from the 20 μL of mRNA transcription system: 86 µg

## CO[C@@H]1[C@H](OP(=O)(O)OC[C@H]2O[C@@H](n3cnc4c(=O)[nH]c(N)nc43)[C@H](O)[C@@H]2O)[C@@H](COP(=O)(O)OP(=O)(O)OP(=O)(O)OC[C@H]2O[C@@H](n3c[n+](C)c4c(=O)[nH]c(N)nc43)[C@H](O)[C@@H]2CO)O[C@H]1n1cnc2c(N)ncnc21 [Compound 137]
  Final product mass obtained from the 20 μL of mRNA transcription system: 116 µg

## CCCCOC[C@H]1[C@@H](O)[C@H](n2c[n+](C)c3c(=O)[nH]c(N)nc32)O[C@@H]1COP(=O)(O)OP(=O)(O)OP(=O)(O)OC[C@H]1O[C@@H](n2cnc3c(N)ncnc32)[C@H](OC)[C@@H]1OP(=O)(O)OC[C@H]1O[C@@H](n2cnc3c(=O)[nH]c(N)nc32)[C@H](O)[C@@H]1O [Compound 151]
  Final product mass obtained from the 20 μL of mRNA transcription system: 110 µg

## CO[C@@H]1[C@H](OP(=O)([O-])OC[C@H]2O[C@@H](n3cnc4c(=O)[nH]c(N)nc43)[C@H](O)[C@@H]2O)[C@@H](COP(=O)(O)OP(=O)(O)OP(=O)(O)OC[C@H]2O[C@@H](n3c[n+](C)c4c(=O)[nH]c(N)nc43)[C@H](O)[C@@H]2CCO)O[C@H]1n1cnc2c(N)ncnc21 [Compound 153]
  Final product mass obtained from the 20 μL of mRNA transcription system: 65 µg

## CCCOCC[C@H]1[C@@H](O)[C@H](n2c[n+](C)c3c(=O)[nH]c(N)nc32)O[C@@H]1COP(=O)(O)OP(=O)(O)OP(=O)(O)OC[C@H]1O[C@@H](n2cnc3c(N)ncnc32)[C@H](OC)[C@@H]1OP(=O)(O)OC[C@H]1O[C@@H](n2cnc3c(=O)[nH]c(N)nc32)[C@H](O)[C@@H]1O [Compound 163]
  Final product mass obtained from the 20 μL of mRNA transcription system: 102 µg

## COC[C@H]1[C@@H](O)[C@H](n2c[n+](C)c3c(=O)[nH]c(N)nc32)O[C@@H]1COP(=O)(O)CP(=O)(O)OP(=O)(O)OC[C@H]1O[C@@H](n2cnc3c(N)ncnc32)[C@H](OC)[C@@H]1OP(=O)(O)OC[C@H]1O[C@@H](n2cnc3c(=O)[nH]c(N)nc32)[C@H](O)[C@@H]1O [Compound 171]
  Final product mass obtained from the 20 μL of mRNA transcription system: 105 µg

## COC[C@H]1[C@@H](O)[C@H](n2c[n+](C)c3c(=O)[nH]c(N)nc32)O[C@@H]1COP(=O)(O)OP(=O)(O)OP(=O)(O)OP(=O)(O)OC[C@H]1O[C@@H](n2cnc3c(N)ncnc32)[C@H](OC)[C@@H]1OP(=O)(O)OC[C@H]1O[C@@H](n2cnc3c(=O)[nH]c(N)nc32)[C@H](O)[C@@H]1O [Compound 189]
  Final product mass obtained from the 20 μL of mRNA transcription system: 92 µg

## COC[C@@H]1[C@@H](COP(=O)(O)OP(=O)([O-])OP(=O)([O-])OC[C@H]2O[C@@H](n3cnc4c(N)ncnc43)[C@H](OC)[C@@H]2NP(=O)(O)OC[C@H]2O[C@@H](n3cnc4c(=O)[nH]c(N)nc43)[C@H](O)[C@@H]2O)OC(n2c[n+](C)c3c(=O)[nH]c(N)nc32)[C@@H]1O.[Na+] (stereo partly drawn) [Compound 195]
  Final product mass obtained from the 20 μL of mRNA transcription system: 69 µg

## CNc1ncnc2c1ncn2[C@@H]1O[C@H](COP(=O)(O)OP(=O)(O)OP(=O)(O)OC[C@H]2O[C@@H](n3c[n+](C)c4c(=O)[nH]c(N)nc43)[C@H](O)[C@@H]2COC)[C@@H](OP(=O)([O-])OC[C@H]2O[C@@H](n3cnc4c(=O)[nH]c(N)nc43)[C@H](O)[C@@H]2O)[C@H]1OC [Compound 197]
  Final product mass obtained from the 20 μL of mRNA transcription system: 121 µg

## COC[C@H]1[C@@H](O)[C@H](n2c[n+](C)c3c(=O)[nH]c(N)nc32)O[C@@H]1COP(=O)(O)OP(=O)(O)OP(=O)(O)OC[C@H]1O[C@@H](n2cnc3c(N)ncnc32)[C@H](OC)[C@@H]1OCOC[C@H]1O[C@@H](n2cnc3c(=O)[nH]c(N)nc32)[C@H](O)[C@@H]1O [Compound 199]
  Final product mass obtained from the 20 μL of mRNA transcription system: 95 µg

## CCO[C@@H]1[C@H](OP(=O)(O)OC[C@H]2O[C@@H](n3cnc4c(=O)[nH]c(N)nc43)[C@H](O)[C@@H]2O)[C@@H](COP(=O)(O)OP(=O)(O)OP(=O)(O)OCC2O[C@@H](n3c[n+](C)c4c(=O)[nH]c(N)nc43)[C@H](O)[C@@H]2COC)O[C@H]1n1cnc2c(N)ncnc21 (stereo partly drawn) [Compound 203]
  Final product mass obtained from the 20 μL of mRNA transcription system: 96 µg

## COC[C@H]1[C@@H](O)[C@H](n2c[n+](Cc3ccccc3)c3c(=O)[nH]c(N)nc32)O[C@@H]1COP(=O)(O)OP(=O)(O)OP(=O)(O)OC[C@H]1O[C@@H](n2cnc3c(N)ncnc32)[C@H](OC)[C@@H]1OP(=O)([O-])OC[C@H]1O[C@@H](n2cnc3c(=O)[nH]c(N)nc32)[C@H](O)[C@@H]1O [Compound 215]
  Final product mass obtained from the 20 μL of mRNA transcription system: 95 µg

## COC[C@H]1[C@@H](O)[C@H](n2c[n+](C)c3c(=O)[nH]c(NC(C)C)nc32)O[C@@H]1COP(=O)(O)OP(=O)(O)OP(=O)(O)OC[C@H]1O[C@@H](n2cnc3c(N)ncnc32)[C@H](OC)[C@@H]1OP(=O)([O-])OC[C@H]1O[C@@H](n2cnc3c(=O)[nH]c(N)nc32)[C@H](O)[C@@H]1O [Compound 219]
  Final product mass obtained from the 20 μL of mRNA transcription system: 101 µg

## CO[C@@H]1[C@H](OP(=O)([O-])OC[C@H]2O[C@@H](n3cnc4c(=O)[nH]c(N)nc43)[C@H](O)[C@@H]2O)[C@@H](COP(=O)(O)OP(=O)(O)OP(=O)(O)OC[C@H]2O[C@@H](n3c[n+](C)c4c(=O)[nH]c(N)nc43)[C@H](O)[C@@H]2CNC=O)O[C@H]1n1cnc2c(N)ncnc21 [Compound 299]
  Final product mass obtained from the 20 μL of mRNA transcription system: 105 µg

## CCCCC(=O)NC[C@H]1[C@@H](O)[C@H](n2c[n+](C)c3c(=O)[nH]c(N)nc32)O[C@@H]1COP(=O)(O)OP(=O)(O)OP(=O)(O)OC[C@H]1O[C@@H](n2cnc3c(N)ncnc32)[C@H](OC)[C@@H]1OP(=O)(O)OC[C@H]1O[C@@H](n2cnc3c(=O)[nH]c(N)nc32)[C@H](O)[C@@H]1O [Compound 305]
  Final product mass obtained from the 20 μL of mRNA transcription system: 92 µg

## CO[C@@H]1[C@H](OP(=O)([O-])OC[C@H]2O[C@@H](n3cnc4c(=O)[nH]c(N)nc43)[C@H](O)[C@@H]2O)[C@@H](COP(=O)(O)OP(=O)(O)OP(=O)(O)OC[C@H]2O[C@@H](n3c[n+](C)c4c(=O)[nH]c(N)nc43)[C@H](O)[C@@H]2CNC(=O)c2ccccc2)O[C@H]1n1cnc2c(N)ncnc21 [Compound 309]
  Final product mass obtained from the 20 μL of mRNA transcription system: 112 µg

## CO[C@@H]1[C@H](OP(=O)([O-])OC[C@H]2O[C@@H](n3cnc4c(=O)[nH]c(N)nc43)[C@H](O)[C@@H]2O)[C@@H](COP(=O)(O)OP(=O)(O)OP(=O)(O)OC[C@H]2O[C@@H](n3c[n+](C)c4c(=O)[nH]c(N)nc43)[C@H](O)[C@@H]2CNS(C)(=O)=O)O[C@H]1n1cnc2c(N)ncnc21 [Compound 311]
  Final product mass obtained from the 20 μL of mRNA transcription system: 88 µg

## CO[C@@H]1[C@H](OP(=O)(O)OC[C@H]2O[C@@H](n3cnc4c(=O)[nH]c(N)nc43)[C@H](O)[C@@H]2O)[C@@H](COP(=O)(O)OP(=O)(O)OP(=O)(O)OC[C@H]2O[C@@H](n3c[n+](C)c4c(=O)[nH]c(N)nc43)[C@H](O)[C@@H]2CCNC(C)=O)O[C@H]1n1cnc2c(N)ncnc21 [Compound 319]
  Final product mass obtained from the 20 μL of mRNA transcription system: 102 µg

## COC(=O)NC[C@H]1[C@@H](O)[C@H](n2c[n+](C)c3c(=O)[nH]c(N)nc32)O[C@@H]1COP(=O)(O)OP(=O)(O)OP(=O)(O)OC[C@H]1O[C@@H](n2cnc3c(N)ncnc32)[C@H](OC)[C@@H]1OP(=O)(O)OC[C@H]1O[C@@H](n2cnc3c(=O)[nH]c(N)nc32)[C@H](O)[C@@H]1O [Compound 323]
  Final product mass obtained from the 20 μL of mRNA transcription system: 114 µg
